The values below are quoted from earlier work in PMC8025584, “Identification of multipotent drugs for COVID-19 therapeutics with the evaluation of their SARS-CoV2 inhibitory activity” (Computational and Structural Biotechnology Journal, 2021).

Where a name gives a salt, the structure may show the parent alone. Read-outs that look alike come from different tables or passages of the source. Where no end group is shown, it is not given here.

In the series the test system is differentially expressed human proteins in COVID-19. The conditions noted are these: cited from earlier work.
The mark [1] stands for this setting: gene HCK, drug-gene interaction listed in DGIdb export, ref DGIdb.
Setting [2] is: gene TNF, drug-gene interaction listed in DGIdb export, ref DGIdb.
Where [3] appears, read: gene CACNA1A, drug-gene interaction listed in DGIdb export, ref DGIdb.

For the molecule `CC(=O)Nc1nnc(S(N)(=O)=O)s1` [ACETAZOLAMIDE], where the note is “gene CA1, ref DGIdb”, the interaction_types entry was “inhibitor”.

With BASILIXIMAB, for the setting “gene IL2RG, ref DGIdb”, the interaction_types entry is reported as “inhibitor”.

For the molecule `CC1(C)OC(c2ccc(S(N)(=O)=O)cc2)=C(c2cccc(F)c2)C1=O` [POLMACOXIB], the interaction_types entry (gene CA1, ref DGIdb) is on record as “inhibitor”.

In the case of `CN(c1ncccc1CNc1nc(Nc2ccc3c(c2)CC(=O)N3)ncc1C(F)(F)F)S(C)(=O)=O` [PF-00562271], the interaction_types entry (gene PTK2B, ref DGIdb) was “inhibitor”.

As for `CC/C(=C(\c1ccc(O)cc1)c1ccc(OCCNC)cc1)c1ccccc1` [ENDOXIFEN], the interaction_types entry (gene CYP19A1, ref DGIdb) is reported as “inhibitor”.

On to `CC(C)(C)c1[nH]cnc1/C=c1\[nH]c(=O)/c(=C/c2ccccc2)[nH]c1=O` [PLINABULIN], for which, under “gene TUBA4A, ref DGIdb”, the interaction_types result is “inhibitor”.

As for `Cc1oncc1C(=O)Nc1ccc(C(F)(F)F)cc1` [LEFLUNOMIDE], where the note is “gene PTK2B, ref DGIdb”, the interaction_types result is recorded as “antagonist”.

With `CCN[C@H]1CN(CCCOC)S(=O)(=O)c2sc(S(N)(=O)=O)cc21` [BRINZOLAMIDE], the interaction_types entry (gene CA1, ref DGIdb) is “inhibitor”.

On to THROMBIN, for which the interaction_types entry (gene F5, drug-gene interaction listed in DGIdb export, ref DGIdb) is “activator”.

For the molecule `COc1cc(Nc2ncc(F)c(Nc3ccc4c(n3)N(COP(=O)(O)O)C(=O)C(C)(C)O4)n2)cc(OC)c1OC` [FOSTAMATINIB, reference compound], the interaction_types entry is, setting by setting: (gene EIF2AK2, ref DGIdb) “inhibitor”; (gene FGR, ref DGIdb) “inhibitor”; (gene GAK, drug-gene interaction listed in DGIdb export, ref DGIdb) “inhibitor”; under setting [1], “inhibitor”; (gene PTK2B, ref DGIdb) “inhibitor”; (gene TAOK3, ref DGIdb) “inhibitor”.

Turning to `Nc1cc(-c2ccncc2)c[nH]c1=O` [INAMRINONE], the interaction_types result under setting [2] is on record as “inhibitor”.

With `CN1CCC[C@H]1c1cccnc1` [NICOTINE], the interaction_types entry is on record as “inhibitor”.

In the case of `CC1=C(/C=C/C(C)=C/C=C/C(C)=C/C(=O)O)C(C)(C)CCC1` [TRETINOIN, reference compound], the interaction_types entry (gene RXRB, ref DGIdb) is reported as “agonist”.

For `O=C1C[C@@H](c2ccc(O)cc2)Oc2cc(O)cc(O)c21` [NARINGENIN], where the note is “gene CYP19A1, ref DGIdb”, the interaction_types result is “inhibitor”.

Consider RILONACEPT, for which, for the setting “gene IL1RN, ref DGIdb”, the interaction_types result was “binder”.

For the molecule ALDESLEUKIN, the interaction_types entry is recorded as “agonist”.

`C[C@@H](C(=O)O)c1ccc(-c2ccccc2)c(F)c1` [TARENFLURBIL]: for the setting “gene PSENEN, ref DGIdb”, the interaction_types result is “modulator”.

With `NCCc1c[nH]cn1` [HISTAMINE], the interaction_types result is on record as “activator”.

On to `Cc1ccc(-n2nc(C(C)(C)C)cc2NC(=O)NCc2cc(F)ccc2Oc2ccc3c(cnn3CCO)c2)cc1` [PEXMETINIB], for which the interaction_types entry under setting [1] is “inhibitor”.

Consider LIPEGFILGRASTIM, for which, under “gene CSF3R, ref DGIdb”, the interaction_types entry is “agonist”.

As for `Cc1cc(-c2cc(OC(=O)c3ccccc3)ccc2Cl)cc2nnc(Nc3ccc(OCCN4CCCC4)cc3)nc12` [TG100-801], the interaction_types entry reads like this: (gene FGR, ref DGIdb) “inhibitor”; under setting [1], “inhibitor”.

As for `CCN1CCCC1CNC(=O)c1cc(S(N)(=O)=O)ccc1OC` (stereo not shown) [SULPIRIDE], for the setting “gene CA1, ref DGIdb”, the interaction_types entry is on record as “inhibitor”.

On to `COc1cc2nc(N3CCN(C(=O)C4COc5ccccc5O4)CC3)nc(N)c2cc1OC` (stereo not shown) [DOXAZOSIN], for which the interaction_types entry (gene KCNH7, ref DGIdb) is given as “inhibitor”.

On to `COc1cc(/C=N/NC(=O)c2ccc3c(c2)OCO3)ccc1OCc1ccccc1` [chembl:CHEMBL1290251], for which the interaction_types entry (gene FPR1, ref DGIdb) was “agonist”.

Turning to `CCOc1ccc2nc(S(N)(=O)=O)sc2c1` [ETHOXZOLAMIDE], the interaction_types result (gene CA1, ref DGIdb) is recorded as “inhibitor”.

`CN1C(CCl)Nc2cc(Cl)c(S(N)(=O)=O)cc2S1(=O)=O` (stereo not shown) [METHYCLOTHIAZIDE]: the interaction_types result (gene CA1, ref DGIdb) is “inhibitor”.

Regarding `COc1cc([C@H]2C(C#N)=C(N)Oc3c2ccc(N)c3N)cc(Br)c1OC` [CROLIBULIN], the interaction_types entry (gene TUBA4A, ref DGIdb) is reported as “inhibitor”.

Regarding `O=S(=O)(N[C@H](CO)C(C(F)(F)F)C(F)(F)F)c1ccc(Cl)s1` [BEGACESTAT], the interaction_types result (gene PSENEN, ref DGIdb) is “inhibitor”.

For `C=CCC1=C(C)C(OC(=O)[C@@H]2[C@@H](C=C(C)C)C2(C)C)CC1=O` (stereo partly shown) [BIOALLETHRIN], the interaction_types result under setting [3] was “blocker”.

BELIMUMAB: the interaction_types entry (gene TNFSF13B, drug-gene interaction listed in DGIdb export, ref DGIdb) is “antibody¦inhibitor¦modulator”.

With ADALIMUMAB, the interaction_types result under setting [2] is on record as “antibody¦inhibitor”.

`CCS(=O)(=O)Nc1ccc2c(c1)/C(=C(/Nc1ccc(CN3CCCCC3)cc1)c1ccccc1)C(=O)N2` [HESPERADIN]: the interaction_types entry was “inhibitor” under setting [1] and “inhibitor” (gene PTK2B, ref DGIdb).

Take `CC(C)[C@H](O)C(=O)N[C@@H](C)C(=O)N[C@@H]1C(=O)N(C)CCc2ccccc21`: for the setting “gene PSENEN, ref DGIdb”, the interaction_types entry was “inhibitor”.

In the case of `COc1ccc(/C=C\c2cc(OC)c(OC)c(OC)c2)cc1OP(=O)(O)O` [FOS[…]], the interaction_types result (gene TUBA4A, ref DGIdb) is reported as “inhibitor”.

Regarding `CC[C@]12C=CCN3CC[C@@]4(c5cc([C@@]6(C(=O)OC)C[C@@H]7C[C@@H](C(C)(F)F)CN(Cc8c6[nH]c6ccccc86)C7)c(OC)cc5N(C)[C@H]4[C@@](O)(C(=O)OC)[C@@H]1OC(C)=O)[C@@H]32` [VINFLUNINE], where the note is “gene TUBA4A, ref DGIdb”, the interaction_types result is reported as “inhibitor”.

For DENENICOKIN, under “gene IL2RG, ref DGIdb”, the interaction_types entry is “agonist”.

`CCOc1ccc(-c2ccc(Cn3c(CC(C)(C)C(=O)O)c(SC(C)(C)C)c4cc(OCc5ccc(C)cn5)ccc43)cc2)cn1` [FIBOFLAPON]: for the setting “gene ALOX5AP, ref DGIdb”, the interaction_types result is “inhibitor”.

Regarding `Cl.N=C(N)N` [GUANIDINE HYDROCHLORIDE], the interaction_types entry (gene KCNH7, ref DGIdb) is reported as “blocker”.

On to `COc1cc([C@@H]2c3cc4c(cc3[C@H](O)[C@H]3COC(=O)[C@H]23)OCO4)cc(OC)c1OC` [PODOFILOX, reference compound], for which, where the note is “gene TUBA4A, ref DGIdb”, the interaction_types entry is reported as “inhibitor”.

As for `COc1ccc(S(=O)(=O)N(Cc2cccnc2)[C@@H](C(=O)NO)C(C)C)cc1` [CGS-27023A], under “gene MMP8, ref DGIdb”, the interaction_types result was “inhibitor”.

`CCN(CC)CCCC(C)Nc1ccnc2cc(Cl)ccc12` (stereo not shown) [CHLOROQUINE]: under setting [2], the interaction_types result is listed as “inhibitor”.

For the molecule LVVYPWT [SPINORPHIN], for the setting “gene FPR1, ref DGIdb”, the interaction_types entry is on record as “antagonist”.

As for `O=C(CCc1ccc(O)cc1)c1c(O)cc(O)cc1O` [PHLORETIN], the interaction_types entry (gene AQP9, ref DGIdb) is on record as “inhibitor”.

Take `CCC1(c2ccc(N)cc2)CCC(=O)NC1=O` (stereo not shown) [AMINOGLUTETHIMIDE, reference compound]: under “gene CYP19A1, ref DGIdb”, the interaction_types entry is given as “inhibitor”.

Take `COc1cc2c(c(OC)c1OC)-c1ccc(OC)c(=O)cc1[C@@H](NC(C)=O)CC2` [COLCHICINE]: the interaction_types result (gene TUBA4A, ref DGIdb) was “inhibitor”.

On to FILGRASTIM, for which the interaction_types result is, setting by setting: (gene CSF2RB, ref DGIdb) “agonist”; (gene CSF3R, ref DGIdb) “stimulator¦agonist”.

`CC[C@]1(O)C[C@H]2CN(CCc3c([nH]c4ccccc34)[C@@](C(=O)OC)(c3cc4c(cc3OC)N(C=O)[C@H]3[C@@](O)(C(=O)OC)[C@H](OC(C)=O)[C@]5(CC)C=CCN6CC[C@]43[C@@H]65)C2)C1` [VINCRISTINE SULFATE]: the interaction_types result (gene TUBA4A, ref DGIdb) is “inhibitor”.

In the case of `CC(=O)/N=c1/sc(S(N)(=O)=O)nn1C` [METHAZOLAMIDE], the interaction_types result (gene CA1, ref DGIdb) is given as “inhibitor”.

For the molecule `CNC(=O)c1ccc(Nc2ncc(C(F)(F)F)c(NCc3nccnc3N(C)S(C)(=O)=O)n2)cc1` [DEFACTINIB], under “gene PTK2B, ref DGIdb”, the interaction_types entry is “inhibitor”.

In the case of `CCN[C@H]1C[C@H](C)S(=O)(=O)c2sc(S(N)(=O)=O)cc21` [DORZOLAMIDE], where the note is “gene CA1, ref DGIdb”, the interaction_types entry is given as “inhibitor”.

On to `CN(C)C(=O)C(CCN1CCC(O)(c2ccc(Cl)cc2)CC1)(c1ccccc1)c1ccccc1` [LOPERAMIDE], for which the interaction_types result under setting [3] is recorded as “inhibitor”.

Consider `CC(C)c1cc(CNc2nc(Nc3cc(C4CC4)[nH]n3)cc(N3CCN(C)CC3)n2)on1` [XL-228], for which the interaction_types result reads like this: (gene FGR, ref DGIdb) “inhibitor”; under setting [1], “inhibitor”.

Take BRENTUXIMAB VEDOTIN: for the setting “gene TUBA4A, ref DGIdb”, the interaction_types entry is “inhibitor”.

For the molecule POLAPREZINC, the interaction_types result under setting [2] is listed as “inhibitor”.

For the molecule `CN(CCO)CC(O)Cn1cnc2c1c(=O)n(C)c(=O)n2C` (stereo not shown) [XANTHINOL], the interaction_types entry (gene RPL3, drug-gene interaction listed in DGIdb export, ref DGIdb) is reported as “binder”.

With `C[C@H]1[C@@H](O)O[C@@H]2O[C@@]3(C)CC[C@H]4[C@H](C)CC[C@@H]1[C@@]24OO3` [ARTENIMOL], the interaction_types entry (gene PFN1, ref DGIdb) was “ligand”.

As to `Cn1cc(C2=C(c3cn(C)c4cc([N+](=O)[O-])ccc34)C(=O)NC2=O)c2ccccc21` [ENMD-981693], the interaction_types result is “inhibitor” (gene FGR, ref DGIdb) and “inhibitor” under setting [1].

For the molecule `O=C1CCC(N2C(=O)c3ccccc3C2=O)C(=O)N1` (stereo not shown) [THALIDOMIDE, reference compound], the interaction_types result under setting [2] was “inhibitor”.

Turning to `Cc1ccc(C(=O)Nc2ccc(S(=O)(=O)O)c3cc(S(=O)(=O)O)cc(S(=O)(=O)O)c23)cc1NC(=O)c1cccc(NC(=O)Nc2cccc(C(=O)Nc3cc(C(=O)Nc4ccc(S(=O)(=O)O)c5cc(S(=O)(=O)O)cc(S(=O)(=O)O)c45)ccc3C)c2)c1` [SURAMIN], the interaction_types entry (gene P2RY13, ref DGIdb) is on record as “antagonist”.

Consider `CCC[C@@H](C)C[C@H](N)CC(=O)O` [IMAGABALIN], for which the interaction_types result under setting [3] is “modulator”.

As for `CCOC(=O)C1=C(COCCN)NC(C)=C(C(=O)OC)C1c1ccccc1Cl` (stereo not shown) [AMLODIPINE], under “gene CA1, ref DGIdb”, the interaction_types entry is recorded as “inhibitor”.

For the molecule `CC(C)(Oc1ccc(CCNC(=O)c2ccc(Cl)cc2)cc1)C(=O)O` [BEZAFIBRATE], the interaction_types result (gene RXRB, ref DGIdb) is “agonist”.

Take `O=P(O)(O)C(Cl)(Cl)P(=O)(O)O` [CLODRONIC ACID]: under “gene SLC25A4, ref DGIdb”, the interaction_types entry is reported as “inhibitor”.
